ChEMBL document CHEMBL3137667, “[Drug-induced liver injury; fourteenth updated edition of the bibliographic database of liver injuries and related drugs]” (Gastroenterol Clin Biol, 2004)

Legend:
[1] = human
[2] = Highest frequency of moderate liver toxicity observed during clinical trials, expressed as a percentage. [column '% BIOL' in source]; conditions: human
[3] = human; remark: listed apart in the source
[4] = human; remark: listed apart in the source
[5] = Times to onset, minimal and maximal, observed in the indexed observations. [column 'DELAI' in source]; conditions: human
[6] = human, serum
[7] = human, serum; remark: listed apart in the source
[8] = Highest frequency of acute liver toxicity observed during clinical trials, expressed as a percentage. [column '% AIGUE' in source]; conditions: human
[9] = human; remark: listed apart in the source
[10] = human; remark: listed apart in the source
[11] = human; remark: listed apart in the source
[12] = human; remark: listed apart in the source
[13] = human, serum, 4383 h
[14] = human; remark: listed apart in the source
[15] = human; remark: listed apart in the source
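For Hepatotoxicity (association with vascular disease) in this document: count of indexed literature references reporting vascular liver injury in humans, e.g. peliosis hepatitis, hepatic veno-occlusive disease or Budd-Chiari syndrome.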
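For Hepatotoxicity (benign tumour) in this document: value is a count of indexed literature references citing a benign tumour confirmed by histopathology.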
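For Hepatotoxicity (choleostasis) in this document: human cholestatic liver injury, shown by histopathology or by peak ALT or AST elevation over alkaline phosphatase ratio below 2, value counts indexed literature reports.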
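For Hepatotoxicity (chronic liver disease) in this document: chronic liver injury confirmed by histopathology or persistently raised serum aminotransferase activity beyond 6 months, value given as the count of indexed literature references.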
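For Hepatotoxicity (cirrhosis) in this document: value is a count of indexed literature references reporting cirrhosis confirmed by histopathology.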
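For Hepatotoxicity (cytolytic) in this document: human cytolytic liver injury, shown by histopathology or by a ratio above 5 of peak ALT or AST elevation to alkaline phosphatase elevation, value counts indexed references.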
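For Hepatotoxicity (granulomatous hepatitis) in this document: value is a count of indexed literature references reporting granulomatous liver disease confirmed by histopathology.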
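For Hepatotoxicity (malignant tumour) in this document: malignant tumour confirmed by histopathology, value gives the count of indexed literature references reporting it.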
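For Hepatotoxicity (severe hepatitis) in this document: human clinical data: severe hepatitis, meaning potentially life-threatening liver failure or clinically observed cases, the value counts how many indexed literature references report it.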
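For Hepatotoxicity (steatosis) in this document: steatosis confirmed by histopathology, value is the count of indexed references.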

SMILES	Hepatotoxicity (severe hepatitis) [1]	Hepatotoxicity (moderate) [2] [%]	Hepatotoxicity (malignant tumour) [3]	Hepatotoxicity (steatosis) [4]	Hepatotoxicity (time to onset) [5]	Hepatotoxicity (acute) [6]	Hepatotoxicity (moderate) [7]	Hepatotoxicity (acute) [8] [%]	Hepatotoxicity (association with vascular disease) [9]	Hepatotoxicity (choleostasis) [10]	Hepatotoxicity (cytolytic) [11]	Hepatotoxicity (granulomatous hepatitis) [12]	Hepatotoxicity (chronic liver disease) [13]	Hepatotoxicity (benign tumour) [14]	Hepatotoxicity (cirrhosis) [15]
CCC(Cc1c(I)cc(I)c(N)c1I)C(=O)O (stereo not given) [IOPANOIC ACID]	0	0	0	0	1 week	1	0	0	0	0	1	0	0	0	0
CC1(C)S[C@@H]2[C@H](NC(=O)[C@H](C(=O)O)c3ccsc3)C(=O)N2[C@H]1C(=O)O.O=C(O)[C@H]1/C(=C/CO)O[C@@H]2CC(=O)N21	1	33	0	0	1 day - 6 weeks	2	54	0	0	2	0	0	0	0	0
COc1cc2oc(=O)c(C)c(C)c2cc1OCCCN1CCN(c2ccccc2OC)CC1 [ENSACULIN]	0	8.3	0	0	2 weeks	0	1	0	0	0	0	0	0	0	0
CN1C(=O)CC(=O)N(c2ccccc2)c2cc(Cl)ccc21 [CLOBAZAM]	0	2.1	0	0	1 week	0	1	0	0	0	0	0	0	0	0
CS(=O)(=O)c1ccc2c(c1)N(CCCN1CCC(C(N)=O)CC1)c1ccccc1S2 [METOPIMAZINE]	0	0	0	0	1 month	1	0	0	0	1	1	0	0	0	0
CC(=O)N(O)CCCCCNC(=O)CCC(=O)N(O)CCCCCNC(=O)CCC(=O)N(O)CCCCCN [DEFEROXAMINE]	1	28	0	0	6 weeks	1	1	0	0	0	1	0	0	0	0
CN(C)C(=O)OC1N=C(c2ccccc2)c2cc(Cl)ccc2N(C)C1=O (stereo not given) [CAMAZEPAM]	0	0	0	0	3 months	1	0	0	0	0	1	0	0	0	0
Cc1ccc2c(c1)C(N1CCN(C)CC1)=Nc1ccccc1S2 [METIAPINE]	0	0	0	0	2 weeks - 2 months	1	2	0	0	0	1	0	0	0	0
CNC(=C[N+](=O)[O-])NCCSCc1csc(CN(C)C)n1 [NIZATIDINE]	1	3.5	0	0	2 weeks	2	3	0.2	0	0	2	0	0	0	1
CCN1CCCC1CNC(=O)c1cc(S(=O)(=O)CC)c(N)cc1OC (stereo not given) [AMISULPRIDE]	0	0	0	0	2 weeks	0	1	0	0	0	0	0	0	0	0
COc1cc2nc(N3CCN(C(=O)C4CCCO4)CC3)nc(N)c2cc1OC (stereo not given) [TERAZOSIN]	0	1.9	0	0	4 months	1	1	0	0	0	0	0	0	0	0
